Measurements: US10633417B2 (priority 2013, dated 2020)

System: Sprague-Dawley rats
Conditions: rat, in vivo

Row | Compound | activity on mechanical allodynia (von Frey), days 14 and 21 | OXA-induced pain threshold decrease (von Frey), day 7, 30 min
1 | CC(C)C[C@H](CN)CC(=O)O [Pregabalin, pregabalin] | active | 
2 | GCCSDPRCRYRCR [RgIA] |  | reverted
